According to the NIST ThermoML archive (doi:10.1021/je500381c):

Experiment: refractive index (Na D-line) (dimensionless); xn = mol fraction of the nth substance listed
Details: 100 kPa, Liquid, Standard Abbe refractometry

CCC12CC3CC(CC(C3)C1)C2 [1-ethyladamantane] + OCC1CCCCC1
refractive index
Details	x2 = 0	x2 = 0.1	x2 = 0.2002	x2 = 0.2997	x2 = 0.3999	x2 = 0.4998	x2 = 0.5989	x2 = 0.7001	x2 = 0.8023	x2 = 0.8996
293.15 K	1.4927	1.4903	1.4877	1.4853	1.4828	1.4801	1.477	1.474	1.4708	1.4673
298.15 K	1.4906	1.4883	1.4861	1.4835	1.4807	1.478	1.4754	1.4721	1.4689	1.4655
303.15 K	1.4884	1.4861	1.4836	1.4812	1.4783	1.4757	1.4733	1.47	1.4668	1.4634
313.15 K	1.4839	1.4816	1.4791	1.4768	1.4741	1.471	1.4687	1.4657	1.4623	1.4593
323.15 K	1.4802	1.4775	1.4751	1.4725	1.4699	1.4672	1.4645	1.4616	1.4584	1.4553
333.15 K	1.4759	1.4725	1.4703	1.4678	1.4652	1.4627	1.4599	1.4571	1.4541	1.451

CC12CC3CC(C)(C1)CC(C)(C3)C2 [1,3,5-trimethyladamantane] + CCCCCCCO
refractive index
Details	x2 = 0	x2 = 0.1001	x2 = 0.2001	x2 = 0.3002	x2 = 0.4004	x2 = 0.5001	x2 = 0.6002	x2 = 0.7001	x2 = 0.7999	x2 = 0.9002
293.15 K	1.4736	1.4695	1.4657	1.4617	1.4573	1.4524	1.4476	1.4424	1.4366	1.4303
298.15 K	1.4715	1.4677	1.4637	1.4597	1.4552	1.4504	1.4458	1.4405	1.4348	1.4286
303.15 K	1.4695	1.4652	1.4614	1.4574	1.453	1.4484	1.4434	1.4382	1.4325	1.4262
313.15 K	1.4649	1.4612	1.4571	1.453	1.4487	1.4438	1.4389	1.4341	1.4283	1.4224
323.15 K	1.4612	1.4569	1.453	1.4489	1.4445	1.4398	1.435	1.4299	1.4244	1.4182
333.15 K	1.4568	1.4526	1.4485	1.4444	1.4401	1.4354	1.4303	1.4255	1.4195	1.4138

CC12CC3CC(C1)CC(C)(C3)C2 [1,3-dimethyladamantane] + CCCCCCCO
refractive index
Details	x2 = 0	x2 = 0.1001	x2 = 0.1997	x2 = 0.2998	x2 = 0.3997	x2 = 0.4997	x2 = 0.6002	x2 = 0.7	x2 = 0.7996	x2 = 0.8999
293.15 K	1.4776	1.4735	1.4696	1.4642	1.4591	1.4541	1.4483	1.4427	1.4365	1.4299
298.15 K	1.4757	1.4714	1.4678	1.4624	1.4572	1.4519	1.4468	1.4411	1.4351	1.4282
303.15 K	1.4734	1.4695	1.4654	1.4603	1.4551	1.4495	1.4442	1.4389	1.4333	1.4265
313.15 K	1.4691	1.4646	1.4608	1.4558	1.4508	1.4457	1.4402	1.4347	1.4288	1.4223
323.15 K	1.4651	1.4606	1.4567	1.4514	1.4464	1.4411	1.4359	1.4301	1.4244	1.4178
333.15 K	1.461	1.4564	1.4527	1.4473	1.4422	1.437	1.4316	1.4262	1.4206	1.4141

CC12CC3CC(C)(C1)CC(C)(C3)C2 [1,3,5-trimethyladamantane] + OCC1CCCCC1
refractive index
Details	x2 = 0	x2 = 0.1	x2 = 0.2001	x2 = 0.2997	x2 = 0.4	x2 = 0.4994	x2 = 0.5991	x2 = 0.7	x2 = 0.801	x2 = 0.8927
293.15 K	1.4736	1.4727	1.4718	1.4711	1.4703	1.4694	1.4684	1.4673	1.4661	1.465
298.15 K	1.4715	1.4708	1.47	1.4691	1.4681	1.4672	1.4663	1.4655	1.4641	1.4631
303.15 K	1.4695	1.4686	1.4676	1.4669	1.4659	1.465	1.4643	1.4632	1.4621	1.4609
313.15 K	1.4649	1.4641	1.4633	1.4625	1.4618	1.4608	1.46	1.459	1.458	1.4568
323.15 K	1.4612	1.46	1.4589	1.4582	1.4573	1.4565	1.4556	1.4549	1.4539	1.4528
333.15 K	1.4568	1.4552	1.4545	1.4538	1.453	1.4522	1.4513	1.4504	1.4492	1.4486

CCC12CC3CC(CC(C3)C1)C2 [1-ethyladamantane] + CCCCCCCO
refractive index
Details	x2 = 0	x2 = 0.0999	x2 = 0.1999	x2 = 0.2988	x2 = 0.3991	x2 = 0.4998	x2 = 0.5995	x2 = 0.7	x2 = 0.8002	x2 = 0.9
293.15 K	1.4927	1.4869	1.4809	1.4746	1.4682	1.461	1.4546	1.4473	1.4397	1.4316
298.15 K	1.4906	1.4847	1.4785	1.4725	1.466	1.4594	1.4522	1.4451	1.4376	1.4298
303.15 K	1.4884	1.4827	1.4768	1.4704	1.464	1.4573	1.4499	1.4433	1.4359	1.4278
313.15 K	1.4839	1.4782	1.4722	1.466	1.4596	1.4528	1.4462	1.4389	1.4316	1.4236
323.15 K	1.4802	1.474	1.468	1.4618	1.4554	1.4486	1.4419	1.4349	1.4273	1.4198
333.15 K	1.4759	1.4697	1.4635	1.4577	1.451	1.4443	1.4373	1.4305	1.423	1.4156

OCC1CCCCC1 [cyclohexylmethanol] + CC12CC3CC(C1)CC(C)(C3)C2
refractive index
Details	x1 = 0.1002	x1 = 0.1995	x1 = 0.2996	x1 = 0.4004	x1 = 0.4973	x1 = 0.6008	x1 = 0.7002	x1 = 0.7999	x1 = 0.9	x1 = 1
293.15 K	1.4759	1.4754	1.4742	1.4732	1.4719	1.4705	1.4692	1.4673	1.4655	1.4629
298.15 K	1.4738	1.4734	1.4722	1.4709	1.4698	1.4688	1.467	1.4653	1.4638	1.4612
303.15 K	1.4716	1.4712	1.47	1.4689	1.4679	1.4664	1.4651	1.4635	1.4617	1.4592
313.15 K	1.4673	1.4669	1.4656	1.4645	1.4633	1.462	1.4607	1.4584	1.4571	1.455
323.15 K	1.4626	1.4623	1.461	1.4602	1.459	1.4575	1.4564	1.4548	1.4535	1.4507
333.15 K	1.4583	1.4578	1.4565	1.4554	1.4544	1.4529	1.4514	1.45	1.4488	1.4463
